Consider 1 compound from patent publication EP0783890A1, “Use of 2-methyl-4-(4-methyl-1-piperazinyl)-10H-thieno(2,3-b)(1,5)benzodiazepine for the treatment of fungal dermatitis” (ELI LILLY AND COMPANY, priority 1995, dated 1997).

A short description of data set [1]: double-blind, randomized, placebo and haloperidol-controlled clinical trial: occurrence of fungal dermatitis. The data set is classed as in vivo. Conditions: 15 +/-2.5 mg/day vs haloperidol (15 +/- 5 mg/day), double-blind extension treatment phase, human subjects. On the procedure:
Such effectiveness for the treatment, amelioration of fungal dermatitis was shown in the following clinical trial:
The study was a double-blind, randomized, parallel, placebo and haloperidol-controlled study of 55 human subjects. The study was conducted in 23 study centers throughout the United States and Canada. […] The acute phase lasted for 6 weeks with evaluations performed weekly followed by a double-blind extension phase of at least one year.

Data set [2] has as its system apomorphine-induced climbing behavior. Conditions: mice; cited from earlier work.
The next data set has as its target T1, 5-HT1C receptor (Homo sapiens, UniProt P28335).
T1 sequence (P28335 33-458): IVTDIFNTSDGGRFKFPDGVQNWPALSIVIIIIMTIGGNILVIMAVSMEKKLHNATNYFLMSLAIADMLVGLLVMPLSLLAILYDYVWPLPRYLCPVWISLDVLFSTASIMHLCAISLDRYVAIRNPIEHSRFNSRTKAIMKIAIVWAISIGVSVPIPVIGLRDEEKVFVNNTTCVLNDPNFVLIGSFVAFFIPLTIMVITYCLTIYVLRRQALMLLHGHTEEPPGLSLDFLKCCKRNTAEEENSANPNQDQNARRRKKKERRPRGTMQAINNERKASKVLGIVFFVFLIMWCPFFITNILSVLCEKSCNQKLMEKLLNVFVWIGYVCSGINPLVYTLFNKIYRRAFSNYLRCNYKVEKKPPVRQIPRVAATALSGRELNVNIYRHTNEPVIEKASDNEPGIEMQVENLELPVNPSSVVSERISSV
Conditions: in vitro; cited from earlier work.

Data set [3] concerns apomorphine-induced hypothermia. Conditions: mice; cited from earlier work.
Data set [4] concerns conditioned avoidance response. Conditions: rats; cited from earlier work.
A short description of data set [5]: detection of radiolabelled compound in saliva. The data set is classed as in vivo. As to the method:
For example, in the treatment of adult humans, dosages of from about 5 to 20 mg per day may be used. A once a day dosage is normally sufficient, although divided doses may be administered. For treatment of fungal dermatitis in a human, a dose range of from about […], preferably 5 to 20 mg per day is suitable.

With `Cc1cc2c(s1)Nc1ccccc1N=C2N1CCN(C)CC1` [2-methyl-4-(4-methyl-1-piperazinyl)-10H-thieno[2,3-b][1,5]benzodiazepine], in data set [1], the “occurrence of fungal dermatitis compared with haloperidol” value was “statistically significantly less frequently”. For the same compound, the apomorphine-induced climbing behavior entry in data set [2] is recorded as “antagonized”. In addition, the “activity at the 5-HT1C receptor” value on 5-HT1C receptor is listed as “active”. The apomorphine-induced hypothermia entry in data set [3] was “antagonized”. The conditioned avoidance response result in data set [4] is recorded as “inhibits”. Moreover, in data set [5], the “detection in the saliva” value is on record as “can be detected in the saliva”.
